These are literature values, as cited in article PMC7605553 (bioRxiv, 2020).

This data set relates to SARS-CoV-2. As to conditions: read-out: EC50 for inhibition of SARS-CoV-2 infection; Calu-3 cells.

Structures can show the parent of a compound that is named as a salt.

As usually defined, the EC50 is the concentration needed to bring the measured effect to its halfway point. Regarding `CN(C)C(=O)COC(=O)Cc1ccc(OC(=O)c2ccc(NC(=N)N)cc2)cc1` [camostat mesylate], the EC50 was 1 µM.
